# Tested on: Unknown protein yeast genes
# Assay: DNA chip mRNA expression in yeast, unknown protein yeast genes (Table 1)
# Format: cell-based, Saccharomyces cerevisiae S288C
# Outline: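 First, S288C yeast grown in YPD at 25° C. are dosed in log phase with one toxicant (growth-inhibiting, not lethal) for 2 h. Next, total RNA is extracted and poly(A) mRNA isolated and reverse-transcribed with Cy3/Cy5-dUTP. Finally, whole-genome chip fluorescence is read relative to unexposed cells.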
compound,measurement,setting,value
"[Cl][Pb][Cl] [(4), PbCl2]",The level of expressed mRNA in the presence of chemical substance/The level of expressed mRNA in the absence of chemical substance,"yeast gene YAL053W, incubated two hours with chemical substance",2.1
same,The level of expressed mRNA in the presence of chemical substance/The level of expressed mRNA in the absence of chemical substance,yeast gene YBL048W,2.8
same,The level of expressed mRNA in the presence of chemical substance/The level of expressed mRNA in the absence of chemical substance,yeast gene YBL107C,1.5
same,The level of expressed mRNA in the presence of chemical substance/The level of expressed mRNA in the absence of chemical substance,"yeast gene YDL072C, incubated two hours with chemical substance",2.1
same,The level of expressed mRNA in the presence of chemical substance/The level of expressed mRNA in the absence of chemical substance,"yeast gene YDL204W, incubated two hours with chemical substance",3.4
same,The level of expressed mRNA in the presence of chemical substance/The level of expressed mRNA in the absence of chemical substance,"yeast gene YDL222C, incubated two hours with chemical substance",3.9
same,The level of expressed mRNA in the presence of chemical substance/The level of expressed mRNA in the absence of chemical substance,"yeast gene YDR330W, incubated two hours with chemical substance",0.8
same,The level of expressed mRNA in the presence of chemical substance/The level of expressed mRNA in the absence of chemical substance,"yeast gene YDR411C, incubated two hours with chemical substance",1.2
same,The level of expressed mRNA in the presence of chemical substance/The level of expressed mRNA in the absence of chemical substance,"yeast gene YDR511W, incubated two hours with chemical substance",2.3
same,The level of expressed mRNA in the presence of chemical substance/The level of expressed mRNA in the absence of chemical substance,"yeast gene YDR545W, incubated two hours with chemical substance",0.7
same,The level of expressed mRNA in the presence of chemical substance/The level of expressed mRNA in the absence of chemical substance,"yeast gene YEL001C, incubated two hours with chemical substance",0.7
same,The level of expressed mRNA in the presence of chemical substance/The level of expressed mRNA in the absence of chemical substance,"yeast gene YER004W, incubated two hours with chemical substance",1.4
same,The level of expressed mRNA in the presence of chemical substance/The level of expressed mRNA in the absence of chemical substance,"yeast gene YER035W, incubated two hours with chemical substance",1.9
same,The level of expressed mRNA in the presence of chemical substance/The level of expressed mRNA in the absence of chemical substance,"yeast gene YER079W, incubated two hours with chemical substance",2.0
same,The level of expressed mRNA in the presence of chemical substance/The level of expressed mRNA in the absence of chemical substance,"yeast gene YER106W, incubated two hours with chemical substance",1.2
same,The level of expressed mRNA in the presence of chemical substance/The level of expressed mRNA in the absence of chemical substance,"yeast gene YER158C, incubated two hours with chemical substance",3.1
same,The level of expressed mRNA in the presence of chemical substance/The level of expressed mRNA in the absence of chemical substance,"yeast gene YER163C, incubated two hours with chemical substance",1.6
same,The level of expressed mRNA in the presence of chemical substance/The level of expressed mRNA in the absence of chemical substance,"yeast gene YER175C, incubated two hours with chemical substance",2.2
same,The level of expressed mRNA in the presence of chemical substance/The level of expressed mRNA in the absence of chemical substance,"yeast gene YFL006W, incubated two hours with chemical substance",1.0
same,The level of expressed mRNA in the presence of chemical substance/The level of expressed mRNA in the absence of chemical substance,"yeast gene YFL010C, incubated two hours with chemical substance",1.0
same,The level of expressed mRNA in the presence of chemical substance/The level of expressed mRNA in the absence of chemical substance,yeast gene YFL024C,0.7
same,The level of expressed mRNA in the presence of chemical substance/The level of expressed mRNA in the absence of chemical substance,"yeast gene YFL032W, incubated two hours with chemical substance",0.8
same,The level of expressed mRNA in the presence of chemical substance/The level of expressed mRNA in the absence of chemical substance,"yeast gene YGL037C, incubated two hours with chemical substance",2.1
same,The level of expressed mRNA in the presence of chemical substance/The level of expressed mRNA in the absence of chemical substance,"yeast gene YGL047W, incubated two hours with chemical substance",2.3
same,The level of expressed mRNA in the presence of chemical substance/The level of expressed mRNA in the absence of chemical substance,"yeast gene YGL053W, incubated two hours with chemical substance",2.5
same,The level of expressed mRNA in the presence of chemical substance/The level of expressed mRNA in the absence of chemical substance,yeast gene YGL121C,4.2
same,The level of expressed mRNA in the presence of chemical substance/The level of expressed mRNA in the absence of chemical substance,"yeast gene YGL199C, incubated two hours with chemical substance",1.0
same,The level of expressed mRNA in the presence of chemical substance/The level of expressed mRNA in the absence of chemical substance,"yeast gene YGR101W, incubated two hours with chemical substance",1.1
same,The level of expressed mRNA in the presence of chemical substance/The level of expressed mRNA in the absence of chemical substance,yeast gene YGR110W,5.9
same,The level of expressed mRNA in the presence of chemical substance/The level of expressed mRNA in the absence of chemical substance,"yeast gene YGR130C, incubated two hours with chemical substance",1.6
same,The level of expressed mRNA in the presence of chemical substance/The level of expressed mRNA in the absence of chemical substance,"yeast gene YGR154C, incubated two hours with chemical substance",0.5
same,The level of expressed mRNA in the presence of chemical substance/The level of expressed mRNA in the absence of chemical substance,"yeast gene YGR221C, incubated two hours with chemical substance",1.4
same,The level of expressed mRNA in the presence of chemical substance/The level of expressed mRNA in the absence of chemical substance,"yeast gene YHR138C, incubated two hours with chemical substance",2.8
same,The level of expressed mRNA in the presence of chemical substance/The level of expressed mRNA in the absence of chemical substance,"yeast gene YHR199C, incubated two hours with chemical substance",2.0
same,The level of expressed mRNA in the presence of chemical substance/The level of expressed mRNA in the absence of chemical substance,"yeast gene YIL023C, incubated two hours with chemical substance",1.8
same,The level of expressed mRNA in the presence of chemical substance/The level of expressed mRNA in the absence of chemical substance,"yeast gene YIL041W, incubated two hours with chemical substance",1.3
same,The level of expressed mRNA in the presence of chemical substance/The level of expressed mRNA in the absence of chemical substance,"yeast gene YIL087C, incubated two hours with chemical substance",1.6
same,The level of expressed mRNA in the presence of chemical substance/The level of expressed mRNA in the absence of chemical substance,"yeast gene YJL057C, incubated two hours with chemical substance",1.7
same,The level of expressed mRNA in the presence of chemical substance/The level of expressed mRNA in the absence of chemical substance,"yeast gene YJL066C, incubated two hours with chemical substance",2.5
same,The level of expressed mRNA in the presence of chemical substance/The level of expressed mRNA in the absence of chemical substance,"yeast gene YJL082W, incubated two hours with chemical substance",1.1
same,The level of expressed mRNA in the presence of chemical substance/The level of expressed mRNA in the absence of chemical substance,"yeast gene YJL151C, incubated two hours with chemical substance",1.2
same,The level of expressed mRNA in the presence of chemical substance/The level of expressed mRNA in the absence of chemical substance,"yeast gene YJL152W, incubated two hours with chemical substance",1.3
same,The level of expressed mRNA in the presence of chemical substance/The level of expressed mRNA in the absence of chemical substance,"yeast gene YJL161W, incubated two hours with chemical substance",4.6
same,The level of expressed mRNA in the presence of chemical substance/The level of expressed mRNA in the absence of chemical substance,"yeast gene YJL171C, incubated two hours with chemical substance",1.4
same,The level of expressed mRNA in the presence of chemical substance/The level of expressed mRNA in the absence of chemical substance,"yeast gene YJR008W, incubated two hours with chemical substance",1.7
same,The level of expressed mRNA in the presence of chemical substance/The level of expressed mRNA in the absence of chemical substance,"yeast gene YJR054W, incubated two hours with chemical substance",0.9
same,The level of expressed mRNA in the presence of chemical substance/The level of expressed mRNA in the absence of chemical substance,yeast gene YKL071W,2.8
same,The level of expressed mRNA in the presence of chemical substance/The level of expressed mRNA in the absence of chemical substance,"yeast gene YKL086W, incubated two hours with chemical substance",2.6
same,The level of expressed mRNA in the presence of chemical substance/The level of expressed mRNA in the absence of chemical substance,"yeast gene YKL151C, incubated two hours with chemical substance",2.5
same,The level of expressed mRNA in the presence of chemical substance/The level of expressed mRNA in the absence of chemical substance,"yeast gene YKL153W, incubated two hours with chemical substance",0.7
